Measurements: PMC7280531, “A PROTAC peptide induces durable β-catenin degradation and suppresses Wnt-dependent intestinal cancer” (Cell Discovery, 2020)
Where a SMILES comes first, the peptide text is derived from it. Bridges are numbered along the chain shown (N, C = ends). [ ]: non-standard residue; d: D form. S5 = C=CCCC[C@](C)(N)C(=O)O; Ahx = NCCCCCC(=O)O

Tests used:
HCT116 cells = assay: Cell proliferation assay (CCK-8), HCT116 cells; format: cell-based; details: 50 μM peptides, 6 days, cell number counted each day
Protocol: Equal number of cells (8000–10,000 cells) were seeded in the 24-well plates and then subjected to different treatments. The cell numbers were counted every 24 h with the CCK-8 cell counting kit (Dojindo Molecular Technologies) according to manufacturer’s instructions.

APC^−/− organoids = assay: APC^−/− mouse intestinal organoid culture; format: cell-based
SW480 cells = assay: Cell permeability of FITC-labeled peptides in SW480 cells (confocal microscopy); format: cell-based
Protocol: After elongation of the peptide and metathesis reaction were conducted on the resin according to a general protocol. Then, the Fmoc group was removed and the resin was treated with Fmoc-Ahx-OH (4 eq.), DIC (4 eq.), Oxyma pure (4 eq.) and NMP (6 mL) for 15 min at 60 °C. The Fmoc group was removed and the resin was treated with fluorescein isothiocyanate (FITC, 2 eq.) and DIPEA (2 eq.) in DMF (6 mL) at room temperature overnight. The biotinylated labeling was carried out as routine amino acid. Cleavage was conducted following a general protocol and crude peptide was purified by RP- HPLC to give the final products.
Supplementary Fig. S3. Cell permeability of FITC-labeled peptides in SW480 […]
(a) The uptake of FITC-labeled peptides into SW480 was examined after incubation for 6 h by confocal microscopy. The nuclei were counter-stained with DAPI. Scale bar = 100 μm. (b) FITC-xStAx and FITC-xStAx-VHLL were added to SW480 cells for 6 h, and then washed out with the growth medium. After 24 h and 48 h, the cells were counter-stained with DAPI and examined by confocal microscopy. Scale bar = 100 […]
(1 picture or pasted object on this page, not shown here)

β-catenin = molecular target: T1, β-catenin (Homo sapiens, UniProt P35222); assay: β-catenin immunoblotting / immunoprecipitation in HEK293T cells
T1 sequence (P35222 1-781): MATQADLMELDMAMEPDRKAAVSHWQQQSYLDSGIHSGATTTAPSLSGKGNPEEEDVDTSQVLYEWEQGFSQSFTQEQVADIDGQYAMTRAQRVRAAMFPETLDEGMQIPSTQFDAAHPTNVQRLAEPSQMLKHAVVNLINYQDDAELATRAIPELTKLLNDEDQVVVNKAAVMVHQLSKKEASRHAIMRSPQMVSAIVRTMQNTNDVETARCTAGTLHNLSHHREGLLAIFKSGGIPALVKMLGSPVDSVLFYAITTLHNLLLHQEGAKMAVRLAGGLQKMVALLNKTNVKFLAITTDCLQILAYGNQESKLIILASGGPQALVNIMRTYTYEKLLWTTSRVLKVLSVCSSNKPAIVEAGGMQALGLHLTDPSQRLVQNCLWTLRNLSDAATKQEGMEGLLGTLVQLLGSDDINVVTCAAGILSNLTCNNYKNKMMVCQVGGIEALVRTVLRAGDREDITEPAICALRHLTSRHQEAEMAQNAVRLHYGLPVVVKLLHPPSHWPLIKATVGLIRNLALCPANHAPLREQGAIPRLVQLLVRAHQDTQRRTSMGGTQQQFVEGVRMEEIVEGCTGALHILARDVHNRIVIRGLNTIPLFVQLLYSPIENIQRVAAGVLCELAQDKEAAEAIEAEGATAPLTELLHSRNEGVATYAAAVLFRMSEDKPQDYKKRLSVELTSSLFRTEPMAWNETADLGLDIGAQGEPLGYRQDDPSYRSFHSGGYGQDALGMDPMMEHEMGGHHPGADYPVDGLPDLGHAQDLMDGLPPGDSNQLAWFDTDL
Protocol: The relative band intensity was quantified with ImageJ and normalized to GAPDH.
For immunoprecipitation, the cells were lysed in TNE lysis buffer (50 mM Tris-HCl, pH 8.0, 150 mM NaCl, 1% Nonidet P-40, and protease inhibitor cocktail). […] After 18,000×g centrifugation for 10 min, the lysates were immunoprecipitated with specific antibody and protein A-Sepharose beads and then washed the beads with TNE buffer for three times before immunoblotting.

Axin2 expression = assay: Axin2^LacZ Wnt reporter mice, β-galactosidase staining of small intestine; format: in vivo; details: i.p. injection, 7 doses/14 days
Protocol: The small intestines were isolated from Axin2^LacZ reporter mice, washed with PBS and fixed in 4 % paraformaldehyde for 1 h at room temperature, then cut into small pieces (1 cm). The tissue pieces were stained with in situ β-galactosidase staining kit (Beyotime) according to the manufacturer’s instruction. The stained tissues were transferred to tissue cassettes and paraffin blocks prepared using standard methods. The tissues were sliced into 5 μm thick sections with paraffin slicing machine (RM2235, Leica) and subjected to hematoxylin staining.

[1] = tested on: CRC patient-derived organoids; assay: CRC patient-derived tumor organoid culture; format: cell-based, human; details: 10 μM
Protocol: Fig. 6 xStAx-VHLL restrains the survival of CRC patient-derived organoids. a Twelve CRC patient-derived organoids, numbered from C-01 to C-12, were treated with DMSO and 10 μM xStAx-VHLL for 4 days. The organoids survival rate of each group was calculated at day 4. b The C-08 organoids were treated with DMSO and 10 μM xStAx-VHLL for 4 days. The trypan blue staining at day 4 indicated the dead organoids. Scale bar = 100 μm. c The percentage of survived C-08 organoids was calculated each day after xStAx-VHLL treatment. d The C-08 organoids were treated with DMSO or 10 μM xStAx-VHLL for 48 h and then harvested for immunoblotting. Relative β-catenin protein levels were quantified. e The C-08 organoids were treated with DMSO and 10 μM xStAx-VHLL for 4 days. Scale bar = 100 μm. f The percentage of survived organoids in C-11 group was calculated each day after xStAx-VHLL treatment. g The C-11 organoids were treated with DMSO or 10 μM xStAx-VHLL for 48 h and then harvested for immunoblotting. Relative β-catenin protein levels were quantified. The relative band intensity was quantified with ImageJ and normalized to GAPDH levels.
CRC patient tumor tissues were washed with cold HBSS. After removing the muscle tissue, the epithelial tumor tissues were cut into small pieces and vigorously suspended. Then the tissue suspension was centrifuged (3 min at 300–400 g) and tumor fraction was enriched at the bottom. Next, the tumor fraction was embedded in Matrigel (BD Biosciences) and seeded on 24-well plates with the culture medium, which includes Advanced DMEM/F12 supplemented with Penicillin/Streptomycin, GlutaMAX-I, N2, B27, N-acetylcysteine (Sigma-Aldrich), CHIR-99021 (5 μM, Selleck), A-83–01 (0.5 μM, Cayman), SB202190 (10 μM, Selleck), gastrin (1 nM, Tocris), Y27632 (10 μM, Enzo), PEG2 (2.5 μM, Selleck), nicotinamide (10 mM, Sigma-Aldrich), EGF (50 ng/mL, Invitrogen), Noggin (100 ng/mL, R&D) and R-spondin1 (500 ng/mL).

[2] = 50 μM peptides, 24 h, immunoblot

CC[C@H](C)[C@@H]1NC(=O)[C@@](C)(NC(=O)[C@H](CCCNC(=N)N)NC(=O)[C@@H]2CCCN2C(=O)[C@H](Cc2c[nH]c3ccccc23)NC(=O)[C@H](CCCNC(=N)N)NC(=O)[C@H](CCCNC(=N)N)NC(C)=O)CCCC=CCCC[C@@](C)(C(=O)N[C@@H](Cc2c[nH]cn2)C(=O)N[C@H](C(=O)N[C@@H](CCCNC(=N)N)C(=O)N[C@@H](CCCNC(=N)N)C(=O)N[C@H](C(=O)N[C@@H](Cc2c[nH]c3ccccc23)C(=O)N[C@@H](CCCNC(=N)N)C(=O)NCCCCCC(=O)N[C@@H](C)C(=O)N[C@@H](CC(C)C)C(=O)N[C@@H](C)C(=O)N2CCC[C@H]2C(=O)N[C@@H](Cc2ccc(O)cc2)C(=O)N[C@H](C(=O)N2CCC[C@H]2C(N)=O)[C@@H](C)CC)C(C)C)C(C)C)NC(=O)[C@H](CC(=O)O)NC(=O)[C@H](CC(C)C)NC1=O [xStAx-VHLL] (Ac-RRWPR[S5]ILD[S5]HVRRVWR[Ahx]ALAPYIP-NH2; staple 6-10; N-terminus and C-terminus assumed)
proliferation of HCT116 cells (HCT116 cells): significantly attenuated the proliferation
APC^−/− organoid survival, MSAB versus xStAx-VHLL (APC^−/− organoids; 10 μM MSAB or 50 μM xStAx-VHLL, 4 days): strong inhibition
growth of APC^−/− organoids (APC^−/− organoids; 50 μM peptide, 4 days): significantly impeded the growth
cleaved caspase 3 (APC^−/− organoids; [2]): increased
β-catenin protein level (APC^−/− organoids; [2]): greatly decreased
expression of Wnt target genes Axin2, Cyclin D1 and Myc (APC^−/− organoids; qPCR): downregulated
retention in the cell after wash-out (SW480 cells; 6 h, washed out with growth medium, examined after 24 h and 48 h): retained in the cell much longer
membrane permeability / uptake into cells (SW480 cells; 6 h incubation): could efficiently enter into a cell
β-catenin protein level, MSAB versus xStAx-VHLL (β-catenin; 10 μM MSAB, 50 μM xStAx-VHLL (legend: 70 μM, Wnt3a CM), 24 h): decreased β-catenin protein to a comparable level
β-catenin ubiquitination (β-catenin; 50 μM peptide 24 h, MG132 10 μM 12 h, IP and immunoblot): promoted β-catenin ubiquitination
time post treatment at which β-catenin degradation started (β-catenin; 70 μM peptide and Wnt3a CM, immunoblot time course): 12 h
endogenous β-catenin protein level (β-catenin; 70 μM peptide, 24 h, without Wnt3a, immunoblot): reduced the β-catenin level
β-catenin protein level in Wnt3a-treated cells (β-catenin; 70 μM peptide, Wnt3a CM, 24 h, immunoblot, lower than xStAx): significantly downregulated β-catenin protein level
β-catenin level after wash-out of the drug (β-catenin; MSAB 10 μM or xStAx-VHLL 70 μM 24 h, then fresh medium 24 or 48 h): durable degradation of β-catenin
Axin2 expression (β-galactosidase staining) (Axin2 expression): significantly blocked Axin2 expression
β-catenin protein level in C-08 organoids ([1]; 2 days (48 h), immunoblot): reduced the β-catenin protein level
survival of C-11 organoids ([1]; 4 days): insensitive to xStAx-VHLL
patient-derived organoids whose survival was potently inhibited ([1]; 4 days, 12 CRC samples C-01 to C-12): 11/12
survival of C-08 and C-05 organoids ([1]; 4 days, compared with DMSO control): strong inhibition function
